Test system: normal human epidermal keratinocytes (NHEK)
Assay: Affymetrix gene array analysis, autoantigen gene expression
Assay type: cell-based
Description: The gene array experiment was performed at the Core Facility of Genomics of the Medical College of Georgia, according to the instructions of the manufacturer (Affymetrix, Santa Clara, Calif.). Briefly, NHEK and OSC2 cells treated with 100 μM EGCG for different time period were extracted for total RNA, the RNA was processed for probes and hybridized with a cDNA microarray (HuG133A, Affymetrix) which represents 22,283 human series. DNA chips were read with a Hewlett-Packard GeneArray Scanner at a resolution of […] and were analyzed with the GeneSpring software (Silicon Genetics, Redwood City, Calif.). Details of this analysis will be published elsewhere (Hsu et al., manuscript in preparation).
Gene assays provide a valuable tool for studying the broad response of cells to agents, and we have used this approach to compare the differential effects of GTPP on gene expression in NHEK and human oral squamous carcinoma cells (Hsu, et al, manuscript in preparation). […] See also Hsu, S. et al. (2005) JPET 315:805-811, which is incorporated by reference in its entirety.

O=C(O[C@@H]1Cc2c(O)cc(O)cc2O[C@@H]1c1cc(O)c(O)c(O)c1)c1cc(O)c(O)c(O)c1 [EGCG, (−)-epigallocatechin-3-gallate]
genes either up- or down-regulated by at least 2-fold (100 uM EGCG, both cell types (NHEK, oral squamous carcinoma cells), 24 hrs post-treatment): approximately 2100 genes
60 kDa, SS-A/Ro (210438_x_at) expression, normalized (0.5 h, 100 μM): 0.71
60 kDa, SS-A/Ro (212852_s_at) expression, normalized (0.5 h, 100 μM): 0.60
Ku autoantigen, 80 kDa (208642_s_at) expression, normalized (0.5 h, 100 μM): 1.29
Ku autoantigen, 80 kDa (208643_s_at) expression, normalized (0.5 h, 100 μM): 2.34
Nuclear antigen SP100 (202863_at) expression, normalized (0.5 h, 100 μM): 1.72
Nuclear antigen SP100 (202864_s_at) expression, normalized (0.5 h, 100 μM): 3.12
Nuclear antigen SP10075 kDa (213226_at) expression, normalized (0.5 h, 100 μM): 3.99
RNA polymerase 1 (202692_s-at) expression, normalized (0.5 h, 100 μM): 0.50
SS-B/La (201138_s_at) expression, normalized (0.5 h, 100 μM): 0.84
SS-B/La (201139_s_at) expression, normalized (0.5 h, 100 μM): 0.71
centromere protein C1 (20473_at) expression, normalized (0.5 h, 100 μM): 1.27
coilin (203653_s_at) expression, normalized (0.5 h, 100 μM): 0.49
coilin (203654_s_at) expression, normalized (0.5 h, 100 μM): 1.11
fodrin-α (208611_s_at) expression, normalized (0.5 h, 100 μM): 0.41
fodrin-α (215235_s_at) expression, normalized (0.5 h, 100 μM): 0.49
golgin-67 (208797_s_at) expression, normalized (0.5 h, 100 μM): 1.26
golgin-67 (208798_x_at) expression, normalized (0.5 h, 100 μM): 0.81
golgin-67 (210425_x_at) expression, normalized (0.5 h, 100 μM): 0.50
golgin-67 (213650_at) expression, normalized (0.5 h, 100 μM): 0.24
scleroderma autoantigen 1, 75 kDa (213226_at) expression, normalized (0.5 h, 100 μM): 3.99
spectrin-β non-erythrocyctic 1 (212071_s_at) expression, normalized (0.5 h, 100 μM): 0.91
thyroid autoantigen 70 kDa (Ku antigen) (200792_at) expression, normalized (0.5 h, 100 μM): 1.15
ADPRT [poly(ADP)-ribose polymerase] expression (0.5 h, 100 μM, vs time zero): 3.547 fold
ANAP12 expression (0.5 h, 100 μM, vs time zero): 0.505 fold
ANXA11 expression (0.5 h, 100 μM, vs time zero): 1.043 fold
CALR expression (0.5 h, 100 μM, vs time zero): 0.71 fold
CBARA1 expression (0.5 h, 100 μM, vs time zero): 0.506 fold
CENPA expression (0.5 h, 100 μM, vs time zero): 7.677 fold
CENPB expression (0.5 h, 100 μM, vs time zero): 0.506 fold
CENPC1 expression (0.5 h, 100 μM, vs time zero): 1.269 fold
CHD4 expression (0.5 h, 100 μM, vs time zero): 0.766 fold
COL17A1 expression (0.5 h, 100 μM, vs time zero): 1.749 fold
CTDSP1 expression (0.5 h, 100 μM, vs time zero): 0.71 fold
CTDSP2 expression (0.5 h, 100 μM, vs time zero): 1.61 fold
CTDSPL expression (0.5 h, 100 μM, vs time zero): 2.83 fold
DLAT expression (0.5 h, 100 μM, vs time zero): 1.54 fold
EPPK1 expression (0.5 h, 100 μM, vs time zero): 0.793 fold
FBL expression (0.5 h, 100 μM, vs time zero): 1.64 fold
FLJ31657 expression (0.5 h, 100 μM, vs time zero): 0.833 fold
FLNB (Filamin B, β) expression (0.5 h, 100 μM, vs time zero): 1.379 fold
FLNB (Filamin B, γ) expression (0.5 h, 100 μM, vs time zero): 0.72 fold
G22P1 (Thyroid autoantigen, 70 kDa, Ku antigen) expression (0.5 h, 100 μM, vs time zero): 1.15 fold
GMEB2 expression (0.5 h, 100 μM, vs time zero): 0.584 fold
GOLGA1 expression (0.5 h, 100 μM, vs time zero): 0.398 fold
GOLGA2 expression (0.5 h, 100 μM, vs time zero): 0.332 fold
GOLGA3 expression (0.5 h, 100 μM, vs time zero): 0.533 fold
GOLGA4 expression (0.5 h, 100 μM, vs time zero): 0.822 fold
GOLGA5 expression (0.5 h, 100 μM, vs time zero): 1.566 fold
GOLGB1 expression (0.5 h, 100 μM, vs time zero): 0.969 fold
HARS expression (0.5 h, 100 μM, vs time zero): 1.27 fold
HARSL expression (0.5 h, 100 μM, vs time zero): 1.12 fold
HSA6591 expression (0.5 h, 100 μM, vs time zero): 0.456 fold
HUMAUANTIG expression (0.5 h, 100 μM, vs time zero): 0.948 fold
IMP-2 expression (0.5 h, 100 μM, vs time zero): 1.615 fold
LAD1 expression (0.5 h, 100 μM, vs time zero): 0.799 fold
LMO4 expression (repeat 1) (0.5 h, 100 μM, vs time zero): 0.272 fold
LMO4 expression (repeat 2) (0.5 h, 100 μM, vs time zero): 0.6 fold
MGC5560 expression (repeat 1) (0.5 h, 100 μM, vs time zero): 4.392 fold
MGC5560 expression (repeat 2) (0.5 h, 100 μM, vs time zero): 7.07 fold
NS (Nucleostemin) expression (0.5 h, 100 μM, vs time zero): 0.634 fold
PDHB expression (0.5 h, 100 μM, vs time zero): 1.079 fold
PDX1 expression (0.5 h, 100 μM, vs time zero): 1.103 fold
PMSCL1, 75 kDa expression (0.5 h, 100 μM, vs time zero): 3.993 fold
PMSCL2 expression (0.5 h, 100 μM, vs time zero): 0.959 fold
POLR1B expression (0.5 h, 100 μM, vs time zero): 0.67 fold
POLR1D expression (0.5 h, 100 μM, vs time zero): 0.90 fold
POLR2A expression (repeat 1) (0.5 h, 100 μM, vs time zero): 0.13 fold
POLR2A expression (repeat 2) (0.5 h, 100 μM, vs time zero): 1.03 fold
POLR2B expression (0.5 h, 100 μM, vs time zero): 1.83 fold
POLR2C expression (0.5 h, 100 μM, vs time zero): 1.32 fold
POLR2D expression (0.5 h, 100 μM, vs time zero): 1.14 fold
POLR2E expression (0.5 h, 100 μM, vs time zero): 0.45 fold
POLR2F expression (0.5 h, 100 μM, vs time zero): 0.90 fold
POLR2G expression (0.5 h, 100 μM, vs time zero): 1.09 fold
POLR2H expression (0.5 h, 100 μM, vs time zero): 0.88 fold
POLR3C expression (0.5 h, 100 μM, vs time zero): 0.90 fold
POLR3G expression (0.5 h, 100 μM, vs time zero): 1.55 fold
PSME3 expression (0.5 h, 100 μM, vs time zero): 2.554 fold
RALY expression (0.5 h, 100 μM, vs time zero): 1.556 fold
SART1 expression (0.5 h, 100 μM, vs time zero): 1.982 fold
SLC25A16 expression (0.5 h, 100 μM, vs time zero): 1.022 fold
SNRP70 expression (0.5 h, 100 μM, vs time zero): 3.59 fold
SNRPA expression (0.5 h, 100 μM, vs time zero): 1.29 fold
SNRPB2 expression (0.5 h, 100 μM, vs time zero): 0.49 fold
SNRPB expression (repeat 1) (0.5 h, 100 μM, vs time zero): 0.96 fold
SNRPB expression (repeat 2) (0.5 h, 100 μM, vs time zero): 0.62 fold
SNRPC expression (0.5 h, 100 μM, vs time zero): 1.28 fold
SNRPD1 expression (repeat 1) (0.5 h, 100 μM, vs time zero): 2.098 fold
SNRPD1 expression (repeat 2) (0.5 h, 100 μM, vs time zero): 0.755 fold
SOX13 expression (0.5 h, 100 μM, vs time zero): 1.304 fold
SP100 expression (repeat 1) (0.5 h, 100 μM, vs time zero): 1.72 fold
SP100 expression (repeat 2) (0.5 h, 100 μM, vs time zero): 3.123 fold
SP110 expression (repeat 1) (0.5 h, 100 μM, vs time zero): 5.725 fold
SP110 expression (repeat 2) (0.5 h, 100 μM, vs time zero): 4.176 fold
SP110 expression (repeat 3) (0.5 h, 100 μM, vs time zero): 1.149 fold
SPTAN1 (α-fodrin) expression (repeat 1) (0.5 h, 100 μM, vs time zero): 0.41 fold
SPTAN1 (α-fodrin) expression (repeat 2) (0.5 h, 100 μM, vs time zero): 0.49 fold
SPTBN expression (0.5 h, 100 μM, vs time zero): 0.91 fold
SSA2 (autoantigen SS-A/Ro) expression (repeat 2) (0.5 h, 100 μM, vs time zero): 0.709 fold
SSA2 expression (repeat 1) (0.5 h, 100 μM, vs time zero): 1.009 fold
SSA2 expression (repeat 3) (0.5 h, 100 μM, vs time zero): 0.505 fold
SSA2 expression (repeat 4) (0.5 h, 100 μM, vs time zero): 0.596 fold
SSB (autoantigen La) expression (repeat 1) (0.5 h, 100 μM, vs time zero): 0.838 fold
SSB (autoantigen La) expression (repeat 2) (0.5 h, 100 μM, vs time zero): 0.711 fold
SSNA1 expression (0.5 h, 100 μM, vs time zero): 1.354 fold
SSSCA1 expression (0.5 h, 100 μM, vs time zero): 1.267 fold
STRN3 expression (0.5 h, 100 μM, vs time zero): 0.425 fold
TOP1 expression (repeat 1) (0.5 h, 100 μM, vs time zero): 0.85 fold
TOP1 expression (repeat 2) (0.5 h, 100 μM, vs time zero): 0.62 fold
UBTF expression (0.5 h, 100 μM, vs time zero): 0.498 fold
XRCC5 (Ku autoantigen, 80 kDa) expression (repeat 1) (0.5 h, 100 μM, vs time zero): 2.338 fold
XRCC5 (Ku autoantigen, 80 kDa) expression (repeat 2) (0.5 h, 100 μM, vs time zero): 1.87 fold
dJ963E22.1 expression (0.5 h, 100 μM, vs time zero): 1.842 fold
α-NAC expression (0.5 h, 100 μM, vs time zero): 0.632 fold

— patent US8287923B2, “Compositions and methods for treating immune disorders” (priority 2005, dated 2012)
